Data from patent US9187539B2, “Compositions having antiangiogenic activity and uses thereof” (The Johns Hopkins University, priority 2005, dated 2015).

Experiments:
[1] = tested on: human umbilical vein endothelial cells (HUVECs); assay: HUVEC proliferation assay (WST-1), 3-day, 2,000 cells per well; format: cell-based; details: 3-day assay
Method: In addition to the 2 and 4 day proliferation experiment where 5,000 cells per well were seeded, the effects of the peptides on the proliferating ability of HUVECs were also studied using cells seeded at a density of 2,000 cells per well. This lower cell seeding density allowed the experiment to be extend for an additional day without changing the cell medium. The effects of the peptides when applied to the cells for 3 consecutive days is also reported herein. The proliferation assay again involved two steps. During the first step 2,000 cells per well for a 96-well plate were seeded without any extracellular matrix substrate on the wells overnight (8 hours). The initial cell culture medium was removed using a multichannel pipetor. To synchronize the cells, the cells were serum starved for 4 hours and the candidate peptides were applied. During serum starvation the cell culture medium was changed from a “full” medium to the “basal” medium, which contained no growth factors or serum. Serum starvation for 4 hours had no effect on the proliferation of the cells. For this assay, the logarithmic scale of four different concentrations of 0.01 μg/ml, 0.1 μg/ml, 1 μg/ml and 10 μg/ml of peptide was used. In addition, a larger concentration of 30 μg/ml peptide was also applied. Each of the concentrations was again tested in quadruplicate. After the third day of peptide application the WST-1 dye was applied for approximately 2 to 4 hours (usually after 3 hours the color saturates). The proliferation was later tested on the ELISA plate reader as described for the 2 and 4 day assay. Note that the 2- and 4-day and the 3-day protocols differed in that 5,000 cells/well versus 2,000 cells/well seeded, respectively.

[2] = tested on: angiogenesis (endothelial cell invasion of basement membrane extract with bFGF and VEGF); assay: Directed in vivo angiogenesis assay (DIVAA), subcutaneously implanted angioreactors; parameters: species or system C57BL/6 mice; details: 200 μg/ml peptide with bFGF and VEGF in the matrix; 11 days after implantation
Method: A directed in vivo anti-angiogenesis assay (DIVAA) was used to test the anti-angiogenic efficacy of the alpha 5 fibril of collagen type 4, which had the sequence: SAPFIECHGRGTCNYYANS (SEQ ID NO: 91). […] The peptide was solubilized in buffer solution at 200 μg/ml without an organic solvent. DIVAA is a reproducible and quantitative in-vivo method of assaying angiogenesis. It involves preparation of silicon cylinders of 20 μl volume, closed on one side, filled with some type of extracellular matrix (for example Matrigel or BME-basement membrane extract) with or without premixed angiogenic factors. These angioreactors are then implanted subcutaneously in the dorsal flank of mice. Accompanied with the onset of angiogenesis, vascular endothelial cells migrate into the extracellular matrix and form vessels in the angioreactor. […]
To obtain a quantitative assessment of the angiogenic invasion, the content of the angioreactors was removed from the cylinder and the endothelial cells were stained using FITC-Lectin (FIG. 38A) Once the tubes were extracted from the mice, the inside of the angioreactors was rinsed with 300 μl of a 36 kDa, bacillus-derived neutral metalloproteinase which is commercially available as Cellsperse (Trevigen, Inc., Gaithersburg, Md.), an extracellular matrix digesting solution and the content of the reactors as well as the rinse was transferred into a microtube. […]

[3] = tested on: human umbilical vein endothelial cells (HUVECs); assay: HUVEC proliferation assay (WST-1), 2- and 4-day, 5,000 cells per well; format: cell-based
Method: The effect of the various peptides on cell proliferation was assayed, by administering the peptides to human umbilical vein endothelial cells (HUVECs) in culture. 45 peptides belonging to four distinct families of proteins including the thrombospondin-1 containing proteins, the C-X-C chemokines, collagen derived peptides and peptides from tissue inhibitors of metalloproteinases were tested. The potency of each of the peptides was tested using the proliferation assay at 2 days and 4 days following administration of the peptides and a similar assay using a different cell density at 3 days. In the four-day experiments, the cell medium was changed after the second day of incubation and the peptide was replaced at the initial concentration together with the medium. TNP-470 is an antiangiogenic compound that was used as a positive control for assessing anti-angiogenic efficacy. The activity of each polypeptide was, therefore, expressed as a percentage of TNP-470 activity, i.e., the optical density obtained experimentally is scaled such that the negative control is 0% and the positive control is 100% as explained below (FIG. 4). Each plate included a well having HUVEC cells that received 0.1 μg/ml TNP-470. For example, a peptide having the same effect on endothelial cell proliferation would have 100% of the activity of TNP-470. Note that activity could exceed 100%. In this assay, the effects of the predicted anti-angiogenic fragments on the ability of HUVECs to proliferate was characterized. […] A commonly used methodology to test for proliferation is to monitor the viability and metabolic activity of endothelial cells, in the presence of the anti-angiogenic fragments at different concentrations and various time steps. The cell proliferation reagent WST-1 was used as a substrate/assay to measure the metabolic activity of viable cells. WST-1 is a colorimetric, non-radioactive assay and can be performed in a microplate. It is suitable for measuring cell proliferation, cell viability or cytotoxicity. The assay is based on the reduction a red tetrazolium salt, WST-1, by viable, metabolically active, cells to form the yellow formazan crystals soluble in the cell medium. […] The cells are cultured described above. Once cells have reached 80% confluence they are trypsinized and resuspended in EGM-2. The cell density is estimated using a hemocytometer. All of the endothelial cells used were from passage 4 to passage 8. The proliferation assay involved two steps. During the first step the cells, approximately 5,000 cells per well for a 96-well plate, were seeded without any extracellular matrix substrate on the wells overnight (8 hours). The initial cell culture medium was removed using a multichannel pipetor and the candidate peptides were applied. A logarithmic scale of four different concentrations of 0.01 μg/ml, 0.1 μg/ml, 1 μg/ml and 10 μg/ml of each peptide was used. Each of the concentrations was tested in quadruplicate. The viability of the cells was challenged at 2 and 4 days upon the application of the peptide. As a positive control for decreased viability, 0.1 μg/ml of TNP-470 (O-(chloro-acetyl-carbamoyl) fumagillol, a synthetic analogue of fumagillin; TNP-470 was provided by NCI, was provided along with the medium, and as a negative control for normal viability, the cells were cultured without the addition of any agent. The cells were then incubated with 10 μl per well of the red WST-1 reagent for approximately 2 to 4 hours. During this incubation period, viable cells converted, in their mitochondria, the red WST-1 to the yellow formazan crystals which dissolve in the medium. The second step of the assay involved the quantification of the changes in proliferation which was performed by measuring the change in color after lysing the cells. The samples were read using the ELISA plate reader Victor3 V (Perkin Elmer) at a wavelength of […]. The amount of color produced is directly proportional to the number of viable cells. […]

Row | Sequence | anti-proliferative activity in words at high peptide concentration ([1]; high/highest applied concentration (30 μg/ml where stated)) | endothelial cell invasion of the extracellular matrix in angioreactors [2] | inhibition of angiogenesis in angioreactors [2] | anti-proliferative activity in words ([3]; 2- and 4-day assay, overall) | anti-proliferative activity, TNP-470 = 100% ([1]; 30 μg/ml peptide) | anti-proliferative activity (maximum or stated level), scaled so that TNP-470 = 100% ([3]; 4 days of peptide application, 0.01-10 μg/ml)
1 | SAPFIECHGRGTCNYYANS [SEQ ID NO: 91, α5CIV AAC27816.1: 1626-1644] | activity increases | Fewer endothelial cells invaded the extracellular matrix | strongly inhibited angiogenesis | low activity | – | –
2 | YCNINEVCHYARRNDKSYWL [SEQ ID NO: 93, α6CIV CAI40758.1: 1526-1545] | – | – | – | – | 80% | 15%
